TGI data for seven molecules are collected here from PubChem BioAssay (NCI).

Structures are written as SMILES.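 All cell lines were grown in 96-well plates and treated with compound for 48 hours. TGI: total growth inhibition.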

Test systems include HOP-62 NSCLC; PC-3 prostate; SN12C renal; LOX IMVI melanoma; SNB-19 CNS; OVCAR-5 ovarian; SK-OV-3 ovarian; DU-145 prostate; HL-60(TB) leukemia; SNB-75 CNS; EKVX NSCLC; MALME-3M melanoma; SW-620 colon; SF-295 CNS; SK-MEL-28 melanoma; COLO 205 colon; OVCAR-3 ovarian; MDA-MB-231 breast; SR leukemia; SF-539 CNS.
Holding throughout (assay): NCI anticancer screen, dose series, 48 h

Regarding `O=C1C(=O)c2c(oc(=O)c3ccccc23)-c2ccccc21`, the TGI with HOP-62 NSCLC, with PC-3 prostate, with SN12C renal, in the assay with LOX IMVI melanoma, with SNB-19 CNS and in the assay on OVCAR-5 ovarian was > 25 µM each time. For the same molecule, the TGI is > 25 µM in the assay on SK-OV-3 ovarian; > 25 µM in the assay with DU-145 prostate; 15 µM in the assay with HL-60(TB) leukemia; > 25 µM in the assay with SNB-75 CNS; > 25 µM with EKVX NSCLC; > 25 µM with MALME-3M melanoma. For the same molecule, the TGI in the assay with SW-620 colon, in the assay on SF-295 CNS, in the assay on SK-MEL-28 melanoma, in the assay on COLO 205 colon, in the assay with OVCAR-3 ovarian and with MDA-MB-231 breast was > 25 µM each time. The TGI in the assay on SR leukemia and in the assay on SF-539 CNS was > 25 µM each time.
On to `CCOC(=O)C(SCCO)C(C(=O)OCC)n1cnc2c(N)ncnc21` (stereo not drawn), for which the TGI in the assay on HOP-62 NSCLC is 45.4 µM; in the assay with PC-3 prostate, 14.7 µM; in the assay with SN12C renal it was 25.6 µM; in the assay on LOX IMVI melanoma, 15.1 µM; in the assay on SNB-19 CNS, > 69.1 µM; in the assay with OVCAR-5 ovarian, 18.6 µM. The TGI in the assay on SK-OV-3 ovarian was > 100 µM; in the assay on DU-145 prostate, > 100 µM; in the assay with HL-60(TB) leukemia, 5.46 µM; in the assay on SNB-75 CNS, 24.7 µM; in the assay on EKVX NSCLC, 38.1 µM; in the assay with MALME-3M melanoma, 23.8 µM. The TGI with SW-620 colon is 12.5 µM; in the assay with SF-295 CNS, > 100 µM; in the assay with SK-MEL-28 melanoma, 34.3 µM; in the assay with COLO 205 colon, 20 µM; in the assay with OVCAR-3 ovarian, 25.4 µM; with MDA-MB-231 breast it was 32.7 µM. Further, the TGI worked out at 14.5 µM with SR leukemia and 35.5 µM in the assay with SF-539 CNS.
On to `CCCCCCCCCCCCCCCCCCNc1ccn(C2OC(COP(=O)(O)OC3CC(n4cc(F)c(=O)[nH]c4=O)OC3COP(=O)(O)OCC3OC(n4ccc(N)nc4=O)C(O)C3O)C(O)C2O)c(=O)n1` (stereo not drawn), for which the TGI in the assay with HOP-62 NSCLC is > 76.8 µM; in the assay on PC-3 prostate it was > 66.7 µM; in the assay with SN12C renal, 98.2 µM; with LOX IMVI melanoma, 20 µM; with SNB-19 CNS it was > 57.9 µM; with OVCAR-5 ovarian, > 100 µM. The TGI in the assay with SK-OV-3 ovarian is > 58.8 µM; in the assay with DU-145 prostate, 39.8 µM; with HL-60(TB) leukemia it was 11.4 µM; in the assay with SNB-75 CNS, > 100 µM; with EKVX NSCLC it was > 74.6 µM; in the assay on MALME-3M melanoma it was > 100 µM. In addition, the TGI was > 57.3 µM in the assay with SW-620 colon; > 51.9 µM with SF-295 CNS; > 100 µM in the assay with SK-MEL-28 melanoma; > 48.7 µM with COLO 205 colon; > 100 µM in the assay with OVCAR-3 ovarian; > 61.7 µM with MDA-MB-231 breast. Also, the figures for the TGI with SR leukemia and in the assay with SF-539 CNS were 25.6 µM and 2.17 µM, respectively.
For the molecule `COCC(N=CN1CCCc2ccccc2[C@@H]1CCCCl)C(C)(C)C` (stereo partly drawn), the TGI with HOP-62 NSCLC stood at 52.9 µM; in the assay on PC-3 prostate, 91.4 µM; in the assay with SN12C renal it was 59 µM; in the assay on LOX IMVI melanoma, 24.2 µM; in the assay on SNB-19 CNS, 65.1 µM; in the assay with OVCAR-5 ovarian it was 49.5 µM. The TGI is 70.1 µM with SK-OV-3 ovarian; > 100 µM with DU-145 prostate; 8.97 µM with HL-60(TB) leukemia; 11.8 µM with SNB-75 CNS; 88.9 µM in the assay with EKVX NSCLC; 6.27 µM in the assay with MALME-3M melanoma. Further, the TGI is 57.6 µM in the assay on SW-620 colon; 35.1 µM with SF-295 CNS; > 100 µM in the assay with SK-MEL-28 melanoma; 10.3 µM in the assay on COLO 205 colon; 0.729 µM in the assay on OVCAR-3 ovarian; 9.48 µM in the assay on MDA-MB-231 breast. The TGI in the assay on SR leukemia came to 12.2 µM; in the assay on SF-539 CNS, 24.4 µM.
For the molecule `COc1ccc(OC)c2sc(N3C(=O)/C(=C/c4ccc(Cl)cc4)N=C3c3ccccc3)nc12`, the TGI in the assay with HOP-62 NSCLC, with PC-3 prostate, in the assay on SN12C renal, in the assay on LOX IMVI melanoma, in the assay on SNB-19 CNS and with OVCAR-5 ovarian was > 100 µM each time. The TGI with SK-OV-3 ovarian, in the assay with DU-145 prostate, in the assay on HL-60(TB) leukemia, with SNB-75 CNS, with EKVX NSCLC and in the assay with MALME-3M melanoma was > 100 µM in each case. Moreover, the TGI in the assay on SW-620 colon, in the assay with SF-295 CNS, with SK-MEL-28 melanoma, with COLO 205 colon, in the assay with OVCAR-3 ovarian and in the assay on MDA-MB-231 breast was > 100 µM throughout. For the same molecule, the TGI in the assay on SR leukemia and in the assay on SF-539 CNS was > 100 µM throughout.
For the molecule `CC12CCC3[C@@H](CC3(C)C)C(O)(CCC1=O)C2` (stereo partly drawn), the TGI in the assay on HOP-62 NSCLC, in the assay on PC-3 prostate, with SN12C renal, in the assay on LOX IMVI melanoma, in the assay with OVCAR-5 ovarian and with SK-OV-3 ovarian was > 100 µM each time. Besides, the TGI in the assay with DU-145 prostate, in the assay on HL-60(TB) leukemia, in the assay on SNB-75 CNS, in the assay on EKVX NSCLC, in the assay with MALME-3M melanoma and with SW-620 colon was > 100 µM in each case. Also, the TGI in the assay on SF-295 CNS, with SK-MEL-28 melanoma, in the assay with COLO 205 colon, in the assay on OVCAR-3 ovarian, in the assay with MDA-MB-231 breast and in the assay with SR leukemia was > 100 µM each time. Moreover, in the assay on SF-539 CNS, the TGI was > 100 µM.
As to `N#C/C(=C\c1cn(Cc2ccccc2)c2ccccc12)c1nn(-c2ccccc2)c(N)c1C#N`, the TGI in the assay with PC-3 prostate is 19.8 µM; with SN12C renal, 38.7 µM; in the assay on LOX IMVI melanoma it was > 100 µM; in the assay on SNB-19 CNS, 28.8 µM; in the assay on OVCAR-5 ovarian, 51.5 µM; with SK-OV-3 ovarian it was 40 µM. Further, the TGI with DU-145 prostate is 32.2 µM; in the assay with HL-60(TB) leukemia it was > 100 µM; in the assay with SNB-75 CNS, 15.3 µM; in the assay on EKVX NSCLC it was 27.5 µM; in the assay on MALME-3M melanoma it was 47.4 µM; in the assay on SW-620 colon it was 36.3 µM. For the same molecule, the TGI is 26.4 µM with SF-295 CNS; > 100 µM in the assay on SK-MEL-28 melanoma; 56.2 µM in the assay on COLO 205 colon; 33.7 µM with OVCAR-3 ovarian; 14.2 µM in the assay with MDA-MB-231 breast; > 100 µM in the assay on SR leukemia. The molecule further registered a TGI in the assay with SF-539 CNS of 7.22 µM.
